The results in this text go back to US20080207708A1, “Oxazole and Thiazole Compounds and Their Use in the Treatment of Pge2 Mediated Disorders” (GLAXO GROUP LIMITED, priority 2005, published 2008).

The assay addresses T1, EP1 receptors (Homo sapiens, UniProt P34995).
T1 sequence (P34995 1-402): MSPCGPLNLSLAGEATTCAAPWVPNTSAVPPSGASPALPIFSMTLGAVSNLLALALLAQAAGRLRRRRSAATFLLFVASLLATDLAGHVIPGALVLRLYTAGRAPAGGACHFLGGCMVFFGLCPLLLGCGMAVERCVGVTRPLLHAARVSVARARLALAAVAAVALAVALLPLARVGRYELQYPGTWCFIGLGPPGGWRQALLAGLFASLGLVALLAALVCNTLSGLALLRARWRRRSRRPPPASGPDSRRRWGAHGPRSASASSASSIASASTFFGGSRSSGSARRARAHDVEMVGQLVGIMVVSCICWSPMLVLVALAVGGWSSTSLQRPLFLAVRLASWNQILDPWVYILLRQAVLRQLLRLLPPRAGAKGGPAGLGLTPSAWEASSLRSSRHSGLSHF
Put plainly: Binding assay for the human prostanoid EP1 receptor (competition with [3H]-PGE2). Details: expressed in transfected cells; host or cells: CHO-K1 cells, membrane fraction. The following applies: [3H]-PGE2 competition; averages of a number of experiments; read-out: pIC50 value, binding assay for the human prostanoid EP1 receptor (converted). The protocol: Competition assay using [^3H]-PGE2.
Compound potencies are determined using a radioligand binding assay. In this assay compound potencies are determined from their ability to compete with tritiated prostaglandin E2 ([^3H]-PGE2) for binding to the human EP1 receptor.
This assay utilises Chinese hamster ovary-K1 (CHO-K1) cells into which a stable vector containing the EP1 cDNA has previously been transfected. Cells are cultured in suitable flasks containing culture medium such as DMEM:F-12 supplemented with 10% v/v foetal calf serum, 2 mM L-glutamine, 0.25 mg/ml geneticin, 10 μg/ml puromycin and 10 μM indomethacin.
Cells are detached from the culture flasks by incubation in calcium and magnesium free phosphate buffered saline containing 1 mM disodium ethylenediaminetetraacetic acid (Na2EDTA) and 10 μM indomethacin for 5 min. The cells are isolated by centrifugation at 250×g for 5mins and suspended in an ice cold buffer such as 50 mM Tris, 1 mM Na2EDTA, 140 mM NaCl, 10 μM indomethacin (pH 7.4). The cells are homogenised using a Polytron tissue disrupter (2×10 s burst at full setting), centrifuged at 48,000×g for 20mins and the pellet containing the membrane fraction is washed (optional) three times by suspension and centrifugation at 48,000×g for 20mins. The final membrane pellet is suspended in an assay buffer such as 10 mM 2-[N-morpholino]ethanesulphonic acid, 1 mM Na2EDTA, 10 mM MgCl2 (pH 6). Aliquots are frozen at […] until required.
For the binding assay the cell membranes, competing compounds and [^3H]-PGE2 (3 nM final assay concentration) are incubated in a final volume of 100 μl for 30 min at 30° C. All reagents are prepared in assay buffer. Reactions are terminated by rapid vacuum filtration over GF/B filters using a Brandell cell harvester. The filters are washed with ice cold assay buffer, dried and the radioactivity retained on the filters is measured by liquid scintillation counting in Packard TopCount scintillation counter.
The data are analysed using non linear curve fitting techniques to determine the concentration of compound producing 50% inhibition of specific binding (IC50).

SMILES strings stand for the structures.

Regarding `O=C(O)c1csc(Cc2cc(C(F)(F)F)ccc2OCc2ccccc2F)n1` [Example 29, Sodium 2-{[2-{[(2-fluorophenyl)methyl]oxy}-5-(trifluoromethyl)phenyl]methyl}-1,3-thiazole-4-carboxylate], the IC50 is at most 31.6 nM.
In the case of `O=C(O)c1csc(Cc2cc(C(F)(F)F)ccc2OCc2ccccc2Cl)n1` [Example 30, Sodium 2-{[2-{[(2-chlorophenyl)methyl]oxy}-5-(trifluoromethyl)phenyl]methyl}-1,3-thiazole-4-carboxylate], the IC50 was at most 31.6 nM.
The result for `O=C(O)c1csc(Cc2cc(C(F)(F)F)ccc2OCc2ccc(Br)cc2)n1` [Example 31, Sodium 2-{[2-{[(4-bromophenyl)methyl]oxy}-5-(trifluoromethyl)phenyl]methyl}-1,3-thiazole-4-carboxylate] reads at most 31.6 nM.
The result for `O=C(O)c1csc(Cc2cc(C(F)(F)F)ccc2OCc2ccc(Cl)cc2F)n1` [Example 32, Sodium 2-{[2-{[(4-chloro-2-fluorophenyl)methyl]oxy}-5-(trifluoromethyl)phenyl]methyl}-1,3-thiazole-4-carboxylate] reads at most 31.6 nM.
The result for `O=C(O)c1csc(Cc2cc(C(F)(F)F)ccc2OCc2ccc(F)cc2Cl)n1` [Example 33, Sodium 2-{[2-{[(2-chloro-4-fluorophenyl)methyl]oxy}-5-(trifluoromethyl)phenyl]methyl}-1,3-thiazole-4-carboxylate] reads at most 31.6 nM; that for `O=C(O)c1csc(Cc2cc(C(F)(F)F)ccc2OCc2cccc(F)c2F)n1` [Example 34, Sodium 2-{[2-{[(2,3-difluorophenyl)methyl]oxy}-5-(trifluoromethyl)phenyl]methyl}-1,3-thiazole-4-carboxylate], at most 31.6 nM.
`O=C(O)c1csc(Cc2cc(C(F)(F)F)ccc2OCc2ccc(F)c(F)c2F)n1` [Example 35, Sodium 2-{[5-(trifluoromethyl)-2-{[(2,3,4-trifluorophenyl)methyl]oxy}phenyl)methyl]-1,3-thiazole-4-carboxylate]: the IC50 is at most 1000 nM.
As for `O=C(O)c1csc(Cc2cc(C(F)(F)F)ccc2OCc2cc(F)c(F)cc2F)n1` [Example 36, Sodium 2-[(5-(trifluoromethyl)-2-{[(2,4,5-trifluorphenyl)methyl]oxy}phenyl)methyl]-1,3-thiazole-4-carboxylate], the figure is at most 31.6 nM; as for `CCCOc1ccc(C(F)(F)F)cc1Cc1nc(C(=O)O)cs1` [Example 37, Sodium 2-{[2-(propyloxy)-5-(trifluoromethyl)phenyl]methyl}-1,3-thiazole-4-carboxylate], at most 31.6 nM.
On to `CCCCOc1ccc(C(F)(F)F)cc1Cc1nc(C(=O)O)cs1` [Example 38, Sodium 2-{[2-(butyloxy)-5-(trifluoromethyl)phenyl]methyl}-1,3-thiazole-4-carboxylate], for which the IC50 is at most 1000 nM.
The result for `O=C(O)c1csc(Cc2cc(C(F)(F)F)ccc2OCC2CC2)n1` [Example 39, Sodium 2-{[2-[(cyclopropylmethyl)oxy]-5-(trifluoromethyl)phenyl]methyl}-1,3-thiazole-4-carboxylate] reads at most 31.6 nM.
As for `CCCCCOc1ccc(C(F)(F)F)cc1Cc1nc(C(=O)O)cs1` [Example 40, Sodium 2-{[2-(pentyloxy)-5-(trifluoromethyl)phenyl]methyl}-1,3-thiazole-4-carboxylate], the IC50 is at most 1000 nM.
As for `CC(C)CCOc1ccc(C(F)(F)F)cc1Cc1nc(C(=O)O)cs1` [Example 41, Sodium 2-{[2-[(3-methylbutyl)oxy]-5-(trifluoromethyl)phenyl]methyl}-1,3-thiazole-4-carboxylate], the figure is at most 31.6 nM; as for `O=C(O)c1csc(Cc2cc(C(F)(F)F)ccc2OCC2CCCCC2)n1` [Example 42, Sodium 2-{[2-[(cyclohexylmethyl)oxy]-5-(trifluoromethyl)phenyl]methyl}-1,3-thiazole-4-carboxylate], at most 1000 nM; as for `O=C(O)c1csc(Cc2cc(C(F)(F)F)ccc2OCC2CCC2)n1` [Example 43, Sodium 2-{[2-[(cyclobutylmethyl)oxy]-5-(trifluoromethyl)phenyl]methyl}-1,3-thiazole-4-carboxylate], at most 31.6 nM.
The result for `CC(C)COc1ccc(C(F)(F)F)cc1Cc1nc(C(=O)O)cs1` [Example 44, Sodium 2-{[2-[(2-methylpropyl)oxy]-5-(trifluoromethyl)phenyl]methyl}-1,3-thiazole-4-carboxylate] reads at most 31.6 nM.
As for `O=C(O)c1csc(Cc2cc(C(F)(F)F)ccc2OCC2CCCC2)n1` [Example 45, Sodium 2-{[2-[(cyclopentylmethyl)oxy]-5-(trifluoromethyl)phenyl]methyl}-1,3-thiazole-4-carboxylate], the figure is at most 31.6 nM.
Regarding `O=C(O)c1csc(Cc2cc(Br)ccc2OCc2ccccc2F)n1` [Example 51, Sodium 2-[(5-bromo-2-{[(2-fluorophenyl)methyl]oxy}phenyl)methyl]-1,3-thiazole-4-carboxylate], the IC50 was at most 31.6 nM.
The result for `O=C(O)c1csc(Cc2cc(Br)ccc2OCc2ccc(F)cc2)n1` [Example 52, Sodium 2-[(5-bromo-2-{[(4-fluorophenyl)methyl]oxy}phenyl)methyl]-1,3-thiazole-4-carboxylate] reads at most 31.6 nM; that for `O=C(O)c1csc(Cc2cc(Br)ccc2OCc2ccc(F)cc2F)n1` [Example 53, Sodium 2-[(5-bromo-2-{[(2,4-difluorophenyl)methyl]oxy}phenyl)methyl]-1,3-thiazole-4-carboxylate], at most 31.6 nM; that for `O=C(O)c1csc(Cc2cc(Br)ccc2OCc2ccc(Br)cc2)n1` [Example 54, Sodium 2-[(5-bromo-2-{[(4-bromophenyl)methyl]oxy}phenyl)methyl]-1,3-thiazole-4-carboxylate], at most 31.6 nM.
As for `O=C(O)c1csc(Cc2cc(Br)ccc2OCc2c(F)cc(F)cc2F)n1` [Example 55, Sodium 2-[(5-bromo-2-{[(2,4,6-trifluorophenyl)methyl]oxy}phenyl)methyl]-1,3-thiazole-4-carboxylate], the figure is at most 1000 nM; as for `O=C(O)c1csc(Cc2cc(Br)ccc2OCc2ccc(Cl)cc2)n1` [Example 56, Sodium 2-[(5-bromo-2-{[(4-chlorophenyl)methyl]oxy}phenyl)methyl]-1,3-thiazole-4-carboxylate], at most 31.6 nM.
As for `O=C(O)c1csc(Cc2cc(Br)ccc2OCc2ccccc2)n1` [Example 57, Sodium 2-({5-bromo-2-[(phenylmethyl)oxy]phenyl}methyl)-1,3-thiazole-4-carboxylate], the figure is at most 31.6 nM.
Turning to `O=C(O)c1csc(Cc2cc(Br)ccc2OCc2cc(F)c(F)cc2F)n1` [Example 58, Sodium 2-[(5-bromo-2-{[(2,4,5-trifluorophenyl)methyl]oxy}phenyl)methyl]-1,3-thiazole-4-carboxylate], the IC50 was at most 31.6 nM.
As for `O=C(O)c1csc(Cc2cc(Br)ccc2OCc2c(F)ccc(F)c2F)n1` [Example 59, Sodium 2-[(5-bromo-2-{[(2,3,6-trifluorophenyl)methyl]oxy}phenyl)methyl]-1,3-thiazole-4-carboxylate], the figure is at most 31.6 nM; as for `O=C(O)c1csc(Cc2cc(Br)ccc2OCc2ccc(Cl)cc2F)n1` [Example 60, Sodium 2-[(5-bromo-2-{[(4-chloro-2-fluorophenyl)methyl]oxy}phenyl)methyl]-1,3-thiazole-4-carboxylate], at most 31.6 nM; as for `O=C(O)c1csc(Cc2cc(Br)ccc2OCc2ccc(F)cc2Cl)n1` [Example 61, Sodium 2-[(5-bromo-2-{[(2-chloro-4-fluorophenyl)methyl]oxy}phenyl)methyl]-1,3-thiazole-4-carboxylate], at most 31.6 nM.
As for `O=C(O)Cc1csc(-c2cc(Cl)ccc2OCc2ccccc2F)n1` [Example 62, Sodium [2-(5-chloro-2-{[(2-fluorophenyl)methyl]oxy}phenyl)-1,3-thiazol-4-yl]acetate], the figure is at most 1000 nM.
As for `O=C(O)Cc1csc(-c2cc(Cl)ccc2OCc2ccc(F)cc2F)n1` [Example 63, Sodium [2-(5-chloro-2-{[(2,4-difluorophenyl)methyl]oxy}phenyl)-1,3-thiazol-4-yl]acetate], the figure is at most 1000 nM.
